Laboratory results taken from patent US12168026B2, “Methods and compositions for wound healing” (priority 2018, dated 2024).
Where a name gives a salt, the structure may show the parent alone.

Key:
[1] = system: NIH 3T3 mouse fibroblast cells
Procedure: The mouse fibroblast cell line NIH-3T3, obtained from ATCC (Manassas, VA) was used for all in vitro cell-based experiments. Cell cultures were maintained at 37° C. and were fed with DMEM growth medium supplemented with 10% calf bovine serum (CBS), 2×10^−[…] (Invitrogen, Carlsbad, CA), and 1% Penicillin Streptomycin. Cells were seeded with 1.0×10^4 cells/well of the 96-well plate and were allowed to attach on the bottom of wells for 24 h. After incubation, cells were washed with […] Phosphate Buffer Saline (PBS); pH 7.4). […] Cells treated with 1% Triton X-100 (Sigma Aldrich, St Louis, MO) were used as controls for complete cell death. For the evaluation of cytotoxicity, the CellTiter 96 AQueous non-radioactive assay (Promega, Germany) was performed. This assay measures the conversion (reduction) of a weakly colored tetrazolium salt of MTS (3-{4,5-dimethylthiazol-2-yl}-5-{3-carboxymethoxyphenyl}-2-{4-sulfophenyl}-2H-tetrazolium) to brightly colored formazan by mitochondrial dehydrogenase of metabolically active (live) cells. The amount of formazan formed varies proportionally with the number of live cells. The wells were rinsed with PBS to remove non-adherent cells and then incubated in a serum-free medium containing 20% MTS reagent for 3 h at 37° C. Then, the absorbance was read in a spectrophotometric plate reader at 490 nm (BioTek Instruments, Winooski, VT).
Briefly, fibroblasts were allowed to attach on the bottom of 96-well plates (within 24-h incubation). […] Following incubation, the viability of the cells was determined by measuring cellular mitochondrial dehydrogenase activity (see Materials and Methods for details).

[2] = system: P. aeruginosa (ATCC 27853); test: Antibacterial activity of solutions of Bp, Ag+ or their mixture (viable counts after 24-h incubation); assay type: cell-based; conditions: for CFU decrease of P. aeruginosa: 10^7 CFU in 500 μL HBSS
Procedure: Viable bacterial counts remaining in suspension following the 24-h incubation were determined by dilution and plating.

[3] = system: P. aeruginosa (ATCC 27853); conditions: Ag+ 0.4 μg mL^−1; cited from earlier work
rats wounds = conditions: 5 mg mL^−1 at local incisions of rats wounds; cited from earlier work
[4] = Bp 2.5 mg mL^−1; cited from earlier work

| Compound | toxicity toward fibroblasts ([1]; Ag+ 0.4 μg mL^−1 and up to 1.2 μg mL^−1, 24 h) | effect on viability of mammalian cells such as fibroblasts ([1]; Ag+ 1.7 μg mL^−1 and Bp 0.25 mg mL^−1) | CFU decrease of P. aeruginosa ([2]; Ag+ 0.3 μg mL^−1, 24 h) | CFU decrease of P. aeruginosa ([2]; Ag+ 0.4 μg mL^−1, 24 h) | CFU decrease of P. aeruginosa (reported) [3] | cytotoxicity limit (concentration of agent that caused a ~50% decrease in viability of cells) ([1]; mouse, 24 h, pH 7.4) | antimicrobial activity ([2]; Bp 0.5 mg mL^−1, 24 h) | collagen production (rats wounds) | inflammation (rats wounds) | antimicrobial activity (reported) [4] |
| --- | --- | --- | --- | --- | --- | --- | --- | --- | --- | --- |
| O=[N+]([O-])[O-].[Ag+] [Ag^+, Silver nitrate] | not to cause significant toxicity | do not significantly reduce the viability | 3 log10 CFU | 6 log10 CFU | 6 log10 CFU | – | – | – | – | – |
| CCCCN1CCCCC1C(=O)Nc1c(C)cccc1C (stereo not shown) [Bp, bupivacaine hydrochloride monohydrate] | – | – | – | – | – | 1.2 µg/mL | does not exhibit antimicrobial activity | decrease collagen production | significant inflammation | exhibit antimicrobial activity |
